According to PubChem BioAssay (NCI):
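Following 48 hours of exposure in 96-well plates, responses at five concentrations were used to interpolate endpoints linearly. GI50 marks 50% less growth. At the TGI there is no net growth.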

Assays:
Assay in all cases: growth of human tumour cells (NCI), 48 h
SF-539 CNS = system: SF-539 CNS
HS 578T breast = system: HS 578T breast
UACC-257 melanoma = system: UACC-257 melanoma
NCI-H226 lung = system: NCI-H226 lung
MALME-3M melanoma = system: MALME-3M melanoma
A498 renal = system: A498 renal
SK-OV-3 ovarian = system: SK-OV-3 ovarian
OVCAR-3 ovarian = system: OVCAR-3 ovarian
BT-549 breast = system: BT-549 breast
SK-MEL-2 melanoma = system: SK-MEL-2 melanoma

Row | Structure (SMILES) | GI50 (SF-539 CNS) [µM] | TGI (SF-539 CNS) [µM] | GI50 (HS 578T breast) [µM] | TGI (HS 578T breast) [µM] | GI50 (UACC-257 melanoma) [µM] | TGI (UACC-257 melanoma) [µM] | GI50 (NCI-H226 lung) [µM] | TGI (NCI-H226 lung) [µM] | GI50 (MALME-3M melanoma) [µM] | TGI (MALME-3M melanoma) [µM] | GI50 (A498 renal) [µM] | TGI (A498 renal) [µM] | GI50 (SK-OV-3 ovarian) [µM] | TGI (SK-OV-3 ovarian) [µM] | GI50 (OVCAR-3 ovarian) [µM] | TGI (OVCAR-3 ovarian) [µM] | GI50 (BT-549 breast) [µM] | TGI (BT-549 breast) [µM] | GI50 (SK-MEL-2 melanoma) [µM] | TGI (SK-MEL-2 melanoma) [µM]
1 | CC1=C(C)C2(O)C(=C(C)C1=O)/C(=C(/O)c1ccccc1)c1nc3ccccc3n12 (stereo not given) | 21.7 | 44.5 | 29.3 | 94.6 | 16.5 | 33.4 | 23.6 | 58.1 | 19.1 | 43.9 | 23.7 | 45.4 | 18.2 | 42.2 | 12.6 | 38.6 | 22.6 | 54.8 | 19.4 | 40
2 | C=C1C(=O)O[C@H]2[C@H]1CC/C(COC(=O)NCCc1c[nH]c3ccc(Cl)cc13)=C\CC[C@@]1(C)O[C@@H]21 | 1.75 | 3.32 | 3.21 | 9.76 | 1.72 | 3.19 | 1.92 | 3.64 | 1.78 | 3.44 | 3.39 | 14.7 | 13.2 | 26 | 1.77 | 3.83 | 1.44 | 2.99 | 1.63 | 3.15
3 | CC12CCC3c4cc(Br)c(O)c(Br)c4CCC3C1CCC2O (stereo not given) | – | 36.3 | – | 49.4 | – | 35.8 | – | 34.5 | – | 30.8 | – | 36.3 | – | 51.4 | – | 56.4 | – | 30.2 | – | 59.4
4 | O=C(/C=C/C12c3ccccc3C(c3ccccc31)C1C(=O)NC(=O)C12)c1ccc(Cl)cc1 (stereo not given) | 1.51 | 2.86 | 1.94 | 7.22 | 1.56 | 3.45 | 1.92 | 5 | 1.51 | 2.88 | 1.28 | 2.6 | 1.85 | 3.87 | 1.63 | 3.26 | 1.34 | 2.69 | 1.81 | 3.71
5 | C[C@@H]1COCCN1c1cc(C2([S@@](C)(=N)=O)CC2)nc(-c2ccnc3[nH]ccc23)n1 | 2.32 | 10.6 | 3.73 | 34.9 | 14.6 | > 100 | 4.26 | 98.7 | 7.32 | 54.6 | 0.716 | 4.2 | 2.95 | 27.4 | 7.07 | > 91.1 | 2.68 | 23.7 | 5.61 | 44.9
6 | N#CN1CC[C@H](C(=O)Nc2cc3cc(C(N)=O)ccc3cn2)C1 | 0.0589 | 0.319 | 0.0534 | 3.52 | 0.22 | 0.904 | 0.238 | 5.08 | 0.0239 | 0.152 | 0.0765 | 0.31 | 0.37 | > 100 | < 0.0186 | 0.206 | 0.0357 | 0.23 | 0.0266 | 0.107
7 | O=C(Nc1cc(Oc2cc(F)c(NC(=O)C3(C(=O)Nc4ccc(F)cc4)CC3)cc2F)ccn1)C1CC1 | 1.83 | 4.14 | 2.5 | 6.82 | 2.08 | 6.32 | 2.53 | 7.98 | 0.324 | 2.47 | 2.41 | 5.18 | 4.04 | > 29.9 | 3.69 | 13.1 | 3.07 | 7.09 | 1.35 | 3.64
8 | COc1ccc(/C=C\c2cc(OC)c(OC)c(OC)c2)cc1OCC(=O)Nc1ccc2nc(C)sc2c1 | 2.56 | 14.6 | 4.32 | > 100 | 1.73 | 3.4 | 2.75 | 12 | 2.84 | 8.29 | 4.18 | > 100 | 5.27 | 50.4 | 6.32 | 69.2 | 3.05 | 8.53 | 3.15 | 19.1
9 | COc1ccc(N(/C=C/C(=O)C(F)(F)F)CC(=O)c2ccc(Cl)cc2)cc1 | 18.2 | 37 | 25 | 67.3 | 18.4 | 37.7 | 16.5 | 31.6 | 16 | 37.6 | 13.9 | 28.7 | 19.2 | 36.4 | 12.8 | 36.2 | 20.6 | 65.3 | 15.4 | 31.8
10 | C[C@]12CCNC(=O)C=C1CC[C@@H]1C2CC[C@@]2(C)C1CC[C@@H]2OC(=O)COc1ccc(N(CCCl)CCCl)cc1 (stereo not given in full) | – | 9.01 | – | 98.1 | – | 37.2 | – | 28.5 | – | 24.6 | – | 36.1 | – | 21.7 | – | 8.25 | – | 60.2 | – | 44.4
11 | Nc1nc(=O)n([C@@H]2CS[C@H](CO)O2)cc1F | > 100 | > 100 | > 100 | > 100 | > 100 | > 100 | > 100 | > 100 | > 100 | > 100 | > 100 | > 100 | > 100 | > 100 | > 100 | > 100 | > 100 | > 100 | > 100 | > 100
12 | COc1cc2c(=O)n(CCN(C)C)c3c4cc5c(cc4ccc3c2cc1OC)OCO5 | 0.181 | 0.863 | 0.973 | > 13.1 | 0.413 | 1.52 | 0.512 | 1.27 | 0.241 | 0.967 | 0.0417 | 0.603 | 0.275 | 1.87 | 0.583 | 19 | 0.413 | 5.27 | 0.876 | 1.94
